Test results reported in patent US20100144712A1 (priority 2007, published 2010).
≈ marks a conversion by molar mass, not a printed value.

Key:
Format in all cases: cell-based
[1] = tested on: Candida albican ATCC 204276; test: In vitro antifungal activity (MIC80), Candida albican ATCC 204276; conditions: ATCC204276, Table 2, 204276, read-out: Minimal inhibitory concentration (MIC80)
Procedure: (§1) In vitro antifungal activities of the inventive antifungal compounds were evaluated using test strains including Candida albican (ATCC 90873, 204276, 62342, 64124, 64550, 96901, MYA-573, MYA-574, MYA-575, MYA-576, MYA-1003) and Aspergillus fumigatus (ATCC 16424). Test samples and positive control samples were prepared by dissolving the inventive compounds and comparative compounds, i.e., amphotericin B, fluconazole and itraconazole, in DMSO, respectively, and each successively diluted with medium to obtain test and positive control solutions having test compound concentrations of 0.125 μg/ml to a maximum concentration not generating turbidity. Minimal inhibitory concentration (MIC80) of each compound was determined as the lowest concentration of the test compounds required to reduce growth by 80% relative to a control strain not treated.
(§2) 1) Test strain: Candida albican ATCC 90873, 204276, 62342, 64124, 64550, 96901, MYA-573, MYA-574, MYA-575, MYA-576, MYA-1003, and Aspergillus fumigatus ATCC 16424 were commercially obtained from The American Type Culture Collection (ATCC) and subcultured in CHEMON Co. Ltd. (amphotericin B was commercially purchased from Sigma, and fluconazole and itraconazole were prepared according to methods described in British Patent No. 2,099,818; and U.S. Pat. No. 4,267,179, respectively).
(§3) 2) Medium and culture condition: Candida albican was cultured in Sabourad Dextrose Agar, YM Agar or Potato Dextrose Agar according to ATCC information at a temperature of 37° C., 35° C., 30° C. or 25° C. Aspergillus fumigatus was cultured in Malt Extract Agar or Potato Dextrose Agar at a temperature ranging from 24 to 27° C.
(§4) 3) Preparation of test samples: the inventive compounds and comparative compounds were each diluted with DMSO to obtain 1 to 2 ml of a test sample in a concentration of 100-folds of the determining maximum concentration (256 μg/ml).
(§5) The test samples were each successively diluted with RPMI 1640 to obtain test solutions having concentrations of […] in a 12×75 mm sterilized disposable culture tube. The final concentration of DMSO was adjusted to […] (v/v).
(§6) 5) Preparation of strain solution and inoculation
(§7) Candida albican strains were each subcultured in Sabourad Dextrose Agar, YM Agar or Potato Dextrose Agar medium at 35° C. for 2˜3 days. In the case of yeasts, a single colony was taken from prominent colonies and suspended in 0.85% sterile physiological saline solution and the turbidity of the suspension was adjusted to 80˜82% at 530 nm, and then diluted 50-fold with RPMI 1640 medium to 1.0×10^3˜5.0×10^3 CFU/ml. The turbidity of fungi was adjusted to 80˜82% and the suspension was diluted 50-fold to […]. Aspergillus fumigatus strains were subcultured in Malt Extract Agar for 7˜10 days, and a single colony was taken from prominent colonies and suspended in 0.85% sterile physiological saline solution and the suspension was adjusted to 0.108 at 530 nm, and then diluted 1000-fold with RPMI 1640 medium to 0.4×10^2˜5×10^4 CFU/ml. The turbidity of fungi was adjusted to 80˜82% and the suspension was diluted 50-fold to 0.4102˜0.5104 CFU/ml.
(§8) The strain solutions thus obtained were each seeded into a sterilized 96-well microplate, 0.1 ml of each test solution were added thereto, and […] of alamarblue was treated to each well (Biosource, #DAL1100). This procedure was repeated 2 times.
(§9) Minimal inhibitory concentration (MIC80) of each compound was determined as the lowest concentration of the test compounds required to reduce growth by 80% relative to a control strain not treated.

[2] = tested on: Aspergillus fumigatus (ATCC 16424); test: In vitro antifungal activity (MIC80), Aspergillus fumigatus ATCC 16424; conditions: Aspergillus fumigatus, ATCC16424, Table 2, ATCC 16424; read-out: Minimal inhibitory concentration (MIC80)
Procedure: as §1, §2, §3, §4, §5, §6, §7, §8, §9
MIC80 of each of the compounds of which antifungal activities can be confirmed by Table 2 was determined using other test strains, i.e., Aspergillus fumigatus ATCC 16424 and MYA-1163, Aspergillus terreus ATCC 28301, Aspergillus flavus ATCC MYA-1004, and Aspergillus niger ATCC 9142.

[3] = tested on: Candida albican ATCC 90873; test: In vitro antifungal activity (MIC80), Candida albican ATCC 90873; conditions: Candida, ATCC90873; Table 2, ATCC 90873; read-out: Minimal inhibitory concentration (MIC80)
Procedure: as §1, §2, §3, §4, §5, §6, §7, §8, §9

[4] = tested on: Candida albican ATCC 64550; test: In vitro antifungal activity (MIC80), Candida albican ATCC 64550; conditions: Candida, ATCC64550; Table 2, 64550; read-out: Minimal inhibitory concentration (MIC80)
Procedure: as §1, §2, §3, §4, §5, §6, §7, §8, §9

[5] = tested on: Candida albican ATCC MYA-576; test: In vitro antifungal activity (MIC80), Candida albican ATCC MYA-576; conditions: Candida; Table 2, MYA 576; read-out: Minimal inhibitory concentration (MIC80)
Procedure: as §1, §2, §3, §4, §5, §6, §7, §8, §9

[6] = tested on: Candida albican ATCC 96901; test: In vitro antifungal activity (MIC80), Candida albican ATCC 96901; conditions: Candida, ATCC96901; Table 2, ATCC 96901; read-out: Minimal inhibitory concentration (MIC80)
Procedure: as §1, §2, §3, §4, §5, §6, §7, §8, §9

[7] = tested on: Candida albican ATCC MYA-1003; test: In vitro antifungal activity (MIC80), Candida albican ATCC MYA-1003; conditions: Candida; Table 2, MYA 1003; read-out: Minimal inhibitory concentration (MIC80)
Procedure: as §1, §2, §3, §4, §5, §6, §7, §8, §9

[8] = tested on: Candida albican ATCC MYA-575; test: In vitro antifungal activity (MIC80), Candida albican ATCC MYA-575; conditions: Candida; Table 2, MYA 575; read-out: Minimal inhibitory concentration (MIC80)
Procedure: as §1, §2, §3, §4, §5, §6, §7, §8, §9

[9] = tested on: Candida albican ATCC 64124; test: In vitro antifungal activity (MIC80), Candida albican ATCC 64124; conditions: Candida, ATCC64124; Table 2, 64124; read-out: Minimal inhibitory concentration (MIC80)
Procedure: as §1, §2, §3, §4, §5, §6, §7, §8, §9

[10] = tested on: Candida albican ATCC MYA-574; test: In vitro antifungal activity (MIC80), Candida albican ATCC MYA-574; conditions: Candida; Table 2, MYA 574; read-out: Minimal inhibitory concentration (MIC80)
Procedure: as §1, §2, §3, §4, §5, §6, §7, §8, §9

[11] = tested on: Candida albican ATCC MYA-573; test: In vitro antifungal activity (MIC80), Candida albican ATCC MYA-573; conditions: Candida; Table 2, MYA 573; read-out: Minimal inhibitory concentration (MIC80)
Procedure: as §1, §2, §3, §4, §5, §6, §7, §8, §9

[12] = tested on: Candida albican ATCC 62342; test: In vitro antifungal activity (MIC80), Candida albican ATCC 62342; conditions: Candida, ATCC62342; Table 2, 62342; read-out: Minimal inhibitory concentration (MIC80)
Procedure: as §1, §2, §3, §4, §5, §6, §7, §8, §9

Compound	MIC80 [1] [mg/L]	MIC80 [2] [mg/L]	MIC80 [3] [mg/L]	MIC80 [4] [mg/L]	MIC80 [5] [mg/L]	MIC80 [6] [mg/L]	MIC80 [7] [mg/L]	MIC80 [8] [mg/L]	MIC80 [9] [mg/L]	MIC80 [10] [mg/L]	MIC80 [11] [mg/L]	MIC80 [12] [mg/L]
C[C@@H](N1CCN(Cc2ccccn2)CC1)[C@](O)(Cn1cncn1)c1ccc(F)cc1F [Example 41, (2R,3R)-2-(2,4-difluorophenyl)-3-(4-((pyridin-2-yl)methyl)piperazin-1-yl)-1-(1H-1,2,4-triazol-1-yl)butan-2-ol]	0.125 (≈ 0.292 µM)	1 (≈ 2.33 µM)	0.125 (≈ 0.292 µM)	16 (≈ 37.3 µM)	0.125 (≈ 0.292 µM)	32 (≈ 74.7 µM)	> 128	64 (≈ 149 µM)	64 (≈ 149 µM)	64 (≈ 149 µM)	2 (≈ 4.67 µM)	
C[C@@H](N1CCN(C(=O)c2nc(-c3ccc(Br)cc3)no2)CC1)[C@](O)(Cn1cncn1)c1ccc(F)cc1F [Example 46, (3-(4-bromophenyl)-1,2,4-oxadiazol-5-yl)(4-((2R,3R)-3-(2,4-difluorophenyl)-3-hydroxy-4-(1H-1,2,4-triazol-1-yl)butan-2-yl)piperazin-1-yl)methanone]		0.126 (≈ 0.214 µM)	0.125 (≈ 0.212 µM)			> 128	> 128				> 128	
C[C@@H](N1CCN(c2cccc(OCC3CC3)n2)CC1)[C@](O)(Cn1cncn1)c1ccc(F)cc1F [Example 21, (2R,3R)-3-(4-(6-(cyclopropylmethoxy)pyridin-2-yl)piperazin-1-yl)-2-(2,4-difluorophenyl)-1-(1H-1,2,4-triazol-1-yl)butan-2-ol]			0.125 (≈ 0.258 µM)	8 (≈ 16.5 µM)	0.25 (≈ 0.516 µM)	> 128	> 128	0.25 (≈ 0.516 µM)	> 128	128 (≈ 264 µM)	8 (≈ 16.5 µM)	8 (≈ 16.5 µM)

Further lines, results first:

MIC80 [1] [mg/L]	MIC80 [2] [mg/L]	MIC80 [3] [mg/L]	MIC80 [4] [mg/L]	MIC80 [5] [mg/L]	MIC80 [6] [mg/L]	MIC80 [7] [mg/L]	MIC80 [8] [mg/L]	MIC80 [9] [mg/L]	MIC80 [10] [mg/L]	MIC80 [11] [mg/L]	MIC80 [12] [mg/L]	Compound
	0.5 (≈ 0.951 µM)	0.125 (≈ 0.238 µM)			> 128	> 128				> 128		C[C@@H](N1CCN(C(=O)c2nc(-c3ccccc3)ns2)CC1)[C@](O)(Cn1cncn1)c1ccc(F)cc1F [Example 50, (4-((2R,3R)-3-(2,4-difluorophenyl)-3-hydroxy-4-(1H-1,2,4-triazol-1-yl)butan-2-yl)piperazin-1-yl)(3-phenyl-1,2,4-thiadiazol-5-yl)methanone]
	1 (≈ 1.79 µM)	0.25 (≈ 0.446 µM)			> 128	> 128				4 (≈ 7.14 µM)		C[C@@H](N1CCN(C(=O)c2nc(-c3ccc(Cl)cc3)ns2)CC1)[C@](O)(Cn1cncn1)c1ccc(F)cc1F [Example 51, (3-(4-chlorophenyl)-1,2,4-thiadiazol-5-yl)(4-((2R,3R)-3-(2,4-difluorophenyl)-3-hydroxy-4-(1H-1,2,4-triazol-1-yl)butan-2-yl)piperazin-1-yl)methanone]
	0.25 (≈ 0.478 µM)	0.125 (≈ 0.239 µM)			> 128	> 128				0.25 (≈ 0.478 µM)		Cc1ccc(-c2noc(C(=O)N3CCN([C@H](C)[C@](O)(Cn4cncn4)c4ccc(F)cc4F)CC3)n2)cc1 [Example 47, (4-((2R,3R)-3-(2,4-difluorophenyl)-3-hydroxy-4-(1H-1,2,4-triazol-1-yl)butan-2-yl)piperazin-1-yl)(3-p-tolyl-1,2,4-oxadiazol-5-yl)methanone]
